Assays:
hTRPV3 [1] = target: T1, hTRPV3 (Homo sapiens, UniProt Q8NET8); experiment: single-channel inside-out patch recordings of hTRPV3 in HEK293T cells; format: cell-based; conditions: 2-APB 50 μM or Car 300 μM alone, n = 5
T1 construct: expressed in transfected cells; host or cells: HEK293T
T1 sequence (Q8NET8 1-790): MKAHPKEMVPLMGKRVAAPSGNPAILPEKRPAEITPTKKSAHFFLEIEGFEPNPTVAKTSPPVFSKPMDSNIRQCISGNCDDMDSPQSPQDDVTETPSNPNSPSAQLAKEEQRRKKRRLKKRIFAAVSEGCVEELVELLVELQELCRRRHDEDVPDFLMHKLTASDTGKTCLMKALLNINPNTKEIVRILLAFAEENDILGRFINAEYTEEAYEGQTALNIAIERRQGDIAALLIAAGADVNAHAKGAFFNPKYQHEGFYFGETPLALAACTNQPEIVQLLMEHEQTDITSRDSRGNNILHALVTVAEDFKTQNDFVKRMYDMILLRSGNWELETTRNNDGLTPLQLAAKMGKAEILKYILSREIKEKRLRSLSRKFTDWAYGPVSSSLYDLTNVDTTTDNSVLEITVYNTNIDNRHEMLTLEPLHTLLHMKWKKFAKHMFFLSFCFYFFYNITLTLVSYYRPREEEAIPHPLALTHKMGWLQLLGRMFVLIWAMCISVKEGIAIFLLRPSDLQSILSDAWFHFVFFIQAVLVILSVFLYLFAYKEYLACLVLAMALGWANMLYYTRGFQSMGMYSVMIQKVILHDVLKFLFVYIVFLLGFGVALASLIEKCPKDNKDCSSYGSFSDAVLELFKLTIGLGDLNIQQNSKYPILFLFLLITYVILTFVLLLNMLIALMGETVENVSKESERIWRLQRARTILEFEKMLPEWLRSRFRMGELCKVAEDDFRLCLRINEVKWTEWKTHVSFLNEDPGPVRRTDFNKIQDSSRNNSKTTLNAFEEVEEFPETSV
Experimental: HEK293T cell line was obtained from the Cell Resource Center, Peking Union Medical College. HEK293T cells were maintained in Dulbecco’s modified Eagle’s medium (DMEM, Gibco) supplemented with 10% fetal bovine serum at 37 °C with 5% CO2. HEK293T cells were seeded onto glass coverslips 1 day in advance and transiently transfected with […] complementary deoxyribonucleic acids of human TRPV3 (hTRPV3, accession number NM_145068.4), hTRPV1 (accession number NM_080704.3), mTRPV2 (accession number NM_011706.2), hTRPV4 (accession number NM_021625.5), hTRPA1 (accession number NM_007332.3), and hTRPM8 (accession number NM_024080.5) through Lipofectamine 2000 (Invitrogen) following the manufacture’s protocol. The next day, determine the plasmid transfection status by observing green fluorescence based on expression of enhanced GFP as an indicator. […] As for the relative fluorescence intensity, we convert the image to 8 bit grayscale using ImageJ (Https://imagej.net/software/fiji/downloads) and set an appropriate threshold value to reduce background noise and enhance the image contrast.
(§1) All patch-clamp recordings were conducted 16 to 24 h after transfection using an EPC10 amplifier powered by PatchMaster software (HEKA) (https://www.heka.com/downloads/downloads_main.html#down_patchmaster) at room temperature. The borosilicate glass pipettes were pulled using a DMZ universal electrode puller (Zeitz-Instruments GmbH) to achieve the resistances of three to 5 MΩ (for whole-cell recordings) or five to 9 MΩ (for inside-out patch recordings). Currents were recorded at a potential ramp from −100 mV to +100 mV for 1000 ms with 1000-ms intervals (for whole-cell recordings) or a persistent potential of −60 mV (inside-out patch recordings). Both pipette solution and bath solution contained (in mM): 130 NaCl, 3 Hepes, and 0.2 EDTA (pH = 7.2–7.4). All recording data were analyzed using Igor Pro (Wave-metrics) (https://www.wavemetrics.com/order/order_igordownloads.htm) and Origin 8.6 (Origin Lab) (https://www.originlab.com/doc/zh/Quick-Help/Download-Installer).

hTRPV3 [2] = target: T1, hTRPV3; experiment: whole-cell patch-clamp of hTRPV3 currents in HEK293T cells activated by 2-APB; format: cell-based; conditions: for inhibition at 50 µM: HEK-293T, compound 50 μM, agonist 2-APB 50 μM, Fig. 3I, n = 4-5, read-out: inhibition of hTRPV3 currents; for IC50: evoked by 2-APB 50 μM, outward currents at +80 mV, HEK293T, Fig. 3J, n = 5-7, read-out: IC50, inhibition of whole-cell hTRPV3 currents
Experimental: (§2) HEK293T cell line was obtained from the Cell Resource Center, Peking Union Medical College. HEK293T cells were maintained in Dulbecco’s modified Eagle’s medium (DMEM, Gibco) supplemented with 10% fetal bovine serum at 37 °C with 5% CO2. HEK293T cells were seeded onto glass coverslips 1 day in advance and transiently transfected with […] complementary deoxyribonucleic acids of human TRPV3 (hTRPV3, accession number NM_145068.4), hTRPV1 (accession number NM_080704.3), mTRPV2 (accession number NM_011706.2), hTRPV4 (accession number NM_021625.5), hTRPA1 (accession number NM_007332.3), and hTRPM8 (accession number NM_024080.5) through Lipofectamine 2000 (Invitrogen) following the manufacture’s protocol. The next day, determine the plasmid transfection status by observing green fluorescence based on expression of enhanced GFP as an indicator. All WT or mutant hTRPV3 complementary deoxyribonucleic acid plasmids were confirmed by DNA sequencing. When conducting experiments on HEK293T cells transfected with G573S point mutant TRPV3 plasmid, we replaced culture medium with or without compounds after 4 h of transfection and then observed green fluorescence of HEK293T cell after 10 h. As for the relative fluorescence intensity, we convert the image to 8 bit grayscale using ImageJ (Https://imagej.net/software/fiji/downloads) and set an appropriate threshold value to reduce background noise and enhance the image contrast.
as §1

[3] = CCK-8 cell viability assay; format: cell-based; conditions: human, HEK293T cells expressing hTRPV3, Car 300 μM for 1 h, read-out: cell viability rate, Car alone
Experimental: For cell viability assay, hTRPV3-HEK293T cells were seeded in 96-well plates for 12 to 16 h before exposed to Car in DMEM containing 2% fetal bovine serum for 1 h. TRPV3 and NF-κB inhibitors were added 1 h before the addition of Car. After removing the medium containing chemical compounds, hTRPV3-HEK293T cells were incubated with DMEM containing 10% CCK-8 (TargetMol) for 1 h. Cell viability was then assessed using the Sunrise microplate reader under the light absorbance at 450 nm (TECAN, CH).

[4] = tested on: Car-induced ear swelling and dorsal skin inflammation in mice; experiment: mouse model of ear swelling and dorsal skin inflammation induced by skin sensitizer Car (3%); format: in vivo
Excerpt: Adult C57BL/6J mice (aged 6–8 weeks, weighing 20 ± 2 g) were purchased from the Beijing Vital River Laboratory Animal Technology Co. Ltd. TRPV3-KO mice were purchased from Cyagen Biosciences Inc. All mice were housed in plastic cages with natural poplar wood bedding materials, accommodating three to five mice per cage. The housing environment was maintained at a controlled room temperature of (23 ± 2) °C and humidity of (50 ± 5) %, with 12-h light/dark cycle (lights on at 7:00 AM and off at 7:00 PM). Mice had free access to food and water. All animal test protocols were approved by the Institutional Animal Care and Use Committee of Qingdao University Health Science Center and were conducted in accordance with institutional and national guidelines for the use and care of animals in experiments. All mice were anesthetized with isoflurane (1%–1.5%) using an isoflurane gas anesthesia device and were euthanized under anesthesia.
(§3) Skin sensitizer Car was dissolved in saline solution containing 30% ethanol. The dorsal skin or ear of mice was swabbed with 3% Car for four consecutive days. To investigate the effects of ROSA, it was diluted to concentration of 0.1/1/10 mM with saline and topically applied on the ear and dorsal skin once a day for 4 days. The control group only received swabs with the solvent.

[5] = tested on: TRPV3, IL-6, TNF-α, and p-P65 protein expressions; experiment: Western blot of TRPV3 and NF-κB pathway proteins in mouse ear tissues; format: in vivo; conditions: mouse ear tissues treated with 3% Car; day 5
Experimental: as §3
Skin or ear skin tissues were homogenized in radioimmunoprecipitation assay buffer (Thermo Fisher Scientific) containing protease inhibitors at a ratio of 100:1 per 10 mg tissue and centrifuged at 15,000 rpm for 15 min. The protein concentration was quantified using a bicinchoninic acid kit (Thermo Fisher Scientific), followed by SDS-PAGE for Western blot analysis. Protein transfer was performed at 150 mA for 90 min, and the transferred membranes (Millipore) were incubated with primary antibodies (TRPV3 antibody, 1:1000, TNF-α antibody, 1:1000, IL-6 antibody, 1:2500, P65 antibody, 1:1000 and p-P65 antibody, 1:1000) in 5% skim milk (Becton, Dickinson and Company). […] Images were quantified using the Image Lab software (https://www.bio-rad.com/zh-cn/product/image-lab-software?ID=KRE6P5E8Z).

[6] = tested on: HEK293T cells expressing hTRPV3; experiment: Hoechst 33342/propidium iodide double staining cell death assay; format: cell-based
Experimental: For cell death assay, HEK293T cells transfected with hTRPV3 were seeded in 6-well plates and randomly divided into different groups. TRPV3 and NF-κB inhibitors were added 1 h before the addition of Car. After administration of Car for 1 h, cell death was detected using Hoechst 33342/propidium iodide Double Stain Kit (Solarbio). After staining, cells were resuspended with PBS buffer. Five random view images in each group were taken under a microscope (Eclipse Ti, Nikon) and counted using ImageJ software (National Institutes of Health).

NF-κB p-P65 = conditions: no reference given; read-out: IC50 of NF-κB p-P65 inhibitor; cited from earlier work
[7] = tested on: HEK293T cells expressing G573S-TRPV3; experiment: green fluorescence of live HEK293T cells transfected with gain-of-function mutant GFP-TRPV3-G573S; format: cell-based, human; conditions: compound 20 μM
Experimental: as §2, with “All WT or mutant hTRPV3 complementary deoxyribonucleic acid plasmids were confirmed by DNA sequencing.” left out

[8] = topical JSH-23 20 μM in 100 μl coapplied with Car for consecutive 4 days, mouse dorsal skin
[9] = inhibitor 20 μM added 1 h before Car 300 μM

Row | SMILES | single-channel open probability, agonist alone (hTRPV3 [1]) | inhibition at 50 µM (hTRPV3 [2]) | IC50 (hTRPV3 [2]) | cell death ratio [6, 9] | green fluorescence of live cells [7] | other results
1 | NCCOB(c1ccccc1)c1ccccc1 [2-APB, 2-aminoethoxydiphenyl borate, reference compound] | 0.67 ± 0.05 |  |  |  |  | 
2 | O=C(/C=C/c1ccc(O)c(O)c1)NCCc1ccc(O)c(O)c1 [CADA, (E)-3-(3,4-dihydroxyphenyl)-N-(2-(3,4-dihydroxyphenyl)ethyl)-2-propenamide] |  | ~40.1% | 67.7 ± 22.4 µM |  |  | 
3 | Cc1ccc(C(C)C)cc1O [Car, carvacrol, reference compound] | 0.77 ± 0.09 |  |  |  |  | viability at 1 h, 300 μM [3]: 72%; ear skin inflammation, thickness and ear swelling scores, Car alone ([4]; topical Car for consecutive 4 days, WT mice): ear skin inflammation with significantly increased thickness and ear swelling scores; protein expressions of TRPV3, IL-6, TNF-α, and p-P65, Car alone [5]: upregulated; cell death ratio, Car alone ([6]; Car 300 μM for 1 h, vehicle control 8%): 30%
4 | Cc1ccc(NCCCc2ccccc2)c(N)c1 [JSH-23] |  |  |  | 17% | robust green fluorescence | IC50 (NF-κB p-P65): 7.1 µM; dermatitis scores [4, 8]: reduction of dermatitis scores; dorsal skin inflammation [4, 8]: significant alleviation of the dorsal skin inflammation; cell death ratio ([6]; inhibitor 5 μM added 1 h before Car 300 μM): 21%
5 | COC(=O)[C@@H](Cc1ccc(O)c(O)c1)OC(=O)/C=C/c1ccc(O)c(O)c1 [MROSA, methyl rosmarinate] |  | 9 ± 5.2% | 157 ± 34.5 µM |  |  | 
6 | N.N.N.N.N.N.N.N.N.N.N.N.N.N.[Cl-].[Cl-].[Cl-].[Cl-].[Cl-].[Cl-].[O-2].[O-2].[Ru+3].[Ru+3].[Ru+4] [RR, ruthenium red] |  |  |  | 23% | robust green fluorescence | 
